According to the supplement of paper PMC10307832:

Tests used:
Assay in all cases: relative viability (nuclei count vs DMSO), 5 days (fraction); higher = more cells survive
[1] = compound: C1=CC2=NC=CN=C2C=C1/C=C/3\C(=O)NC(=O)S3 + CC1(C)CCC(c2ccc(Cl)cc2)=C(CN2CCN(c3ccc(C(=O)NS(=O)(=O)c4ccc(N[C@H](CCN5CCOCC5)CSc5ccccc5)c(S(=O)(=O)C(F)(F)F)c4)cc3)CC2)C1 [Navitoclax] (partner 0.5 µM)
How it was run: (§1)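 Relative viability is defined as nuclei in treated wells over nuclei in vehicle wells. Duplicate plates were run and medians reported. Lung cancer cell lines in 1536-well plates were dosed by pin tool one day after seeding, with one drug or with a fixed anchor-drug dose plus five library-drug doses (not always all listed) in √10 steps, and nuclei were counted after 5 days.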

[2] = compound: C1=CC2=NC=CN=C2C=C1/C=C/3\C(=O)NC(=O)S3 + N=C(N)NC(=N)NCCc1ccccc1 [Phenformin] (partner 250 µM)
How it was run: as §1

BGJ398 + Alpelisib = compound: CCN1CCN(c2ccc(Nc3cc(N(C)C(=O)Nc4c(Cl)c(OC)cc(OC)c4Cl)ncn3)cc2)CC1 [BGJ398] + Cc1nc(NC(=O)N2CCC[C@H]2C(N)=O)sc1-c1ccnc(C(C)(C)C(F)(F)F)c1 [Alpelisib] (partner 2 µM)
How it was run: as §1

BGJ398 + Pemetrexed = compound: CCN1CCN(c2ccc(Nc3cc(N(C)C(=O)Nc4c(Cl)c(OC)cc(OC)c4Cl)ncn3)cc2)CC1 [BGJ398] + Nc1nc2[nH]cc(CCc3ccc(C(=O)N[C@@H](CCC(=O)O)C(=O)O)cc3)c2c(=O)[nH]1 [Pemetrexed] (partner 0.2 µM)
How it was run: as §1

UMC-11
relative viability ([1]; first compound 0.02 µM): 0.296 | relative viability ([1]; first compound 0.06325 µM): 0.397 | relative viability ([1]; first compound 0.2 µM): 0.312 | relative viability ([1]; first compound 0.6325 µM): 0.307 | relative viability ([1]; first compound 2 µM): 0.302 | relative viability ([2]; first compound 0.02 µM): 0.329 | relative viability ([2]; first compound 0.06325 µM): 0.335 | relative viability ([2]; first compound 0.2 µM): 0.373 | relative viability ([2]; first compound 0.6325 µM): 0.338 | relative viability ([2]; first compound 2 µM): 0.331 | relative viability (BGJ398 + Alpelisib; first compound 0.01 µM): 0.999 | relative viability (BGJ398 + Alpelisib; first compound 0.03162 µM): 0.88 | relative viability (BGJ398 + Alpelisib; first compound 0.1 µM): 1.06 | relative viability (BGJ398 + Alpelisib; first compound 0.3162 µM): 0.983 | relative viability (BGJ398 + Alpelisib; first compound 1 µM): 0.907 | relative viability (BGJ398 + Pemetrexed; first compound 0.01 µM): 0.799 | relative viability (BGJ398 + Pemetrexed; first compound 0.03162 µM): 0.747 | relative viability (BGJ398 + Pemetrexed; first compound 0.1 µM): 0.854 | relative viability (BGJ398 + Pemetrexed; first compound 0.3162 µM): 0.814 | relative viability (BGJ398 + Pemetrexed; first compound 1 µM): 0.758
